In patent US20050163852A1, “Process for loading and thermodynamically activating drungs on polymers by means of supercritical fluids” (priority 2002, published 2005):

Test: Activation level by Differential Scanning Calorimetry (fraction of crystalline form)
Type: physicochemical
Details: DSC, ΔHmelting/ΔH0 normalized to drug assayed in the polymer
Procedure: The presence of amorphous, nanocrystalline or crystal phase can be detected by means of Differential Scanning Calorimetry (DSC). Compared to the sharp melting peak of the drug crystal, the nanocrystals present a broader peak with a markedly lower maximum of temperature (I. Colombo et al. 4th Int. Conf. Pharm. Technol., 1986; F. Carli et al. Acta Pharm. Jugosl. 38, 361, 1988).
In the examples, the activation level is expressed as the fraction of crystalline form. It is determined by comparing the enthalpy relative to the melting of the crystals in the polymer (ΔHmelting) to that of pure drug (ΔH0). The ΔHmelting/ΔH0 ratio, normalized in accordance with the drug assayed in the polymer, is then considered equal to the fraction of crystalline form. The higher the amount of crystals (higher crystallinity), the lower the thermodynamic activation level of the drug.

Crystallinity (ibuprofen, supercritical CO2) | Crystallinity (ibuprofen, supercritical ethylene) | Crystallinity (nimesulide, supercritical CO2) | Compound
100% | 100% | – | CC(C)Cc1ccc(C(C)C(=O)O)cc1 (stereo not drawn) [Ibuprofen, ibuprofen]
– | – | 100% | CS(=O)(=O)Nc1ccc([N+](=O)[O-])cc1Oc1ccccc1 [Nimesulide, nimesulide]
